Molecular target: T1, Low molecular weight phosphotyrosine protein phosphatase (Homo sapiens, UniProt P24666)
T1 sequence (P24666 whole entry): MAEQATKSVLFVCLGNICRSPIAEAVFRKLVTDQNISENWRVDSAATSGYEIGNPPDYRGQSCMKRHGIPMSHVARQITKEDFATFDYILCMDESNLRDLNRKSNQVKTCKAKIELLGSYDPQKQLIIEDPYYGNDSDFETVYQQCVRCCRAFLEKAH
Experiment: LMPTP Primary Screening Protocol
Experimental: A listing of materials is provided: Item, source, catalog no. […] Prepare Reagents as described in section F. Recipe. 2. Using LabCyte Echo, transfer 60 nL from 2 mM test compound source plate into assay plate Col. 5-48 (final concentration of test compounds is 20 μM). 60 nL of DMSO should be transferred to col. 1-4 for positive and negative control wells. 3. Spin plates at 1000 rpm for 1 minute in centrifuge. 4. Using the Beckman Coulter Bioraptr, add 3 μL/well of control buffer to columns 1 and 2. 5. Using the Bioraptr, add 3 μL/well of enzyme solution to col. 3-48. 6. Using the Bioraptr, add 3 μL/well of substrate solution to col. 1-48. 7. Spin plates at 1000 rpm for 1 minute in centrifuge. 8. Incubate plates in the dark at room temperature for 50 minutes. 9. Read plates on PerkinElmer Viewlux using a FI protocol.

- IC50: > 5 µM
SMILES: CC(C)(C)OC(=O)C1(c2cc(NCCCC3CCCNC3)c3ccccc3n2)C=c2ccccc2=N1 (stereo unspecified) [US11220486, Compound I98]

Source: BindingDB's records for patent US11220486 (LA JOLLA INSTITUTE OF ALLERGY & IMMUNOLOGY; SANFORD BURNHAM …, 2022)
